The text below walks through data of ChEMBL document CHEMBL5104119, “Miniproteins in medicinal chemistry” (Bioorg Med Chem Lett, 2022).

Series [1] can be described thus: Antiproliferative activity against human PBMC cells assessed as cell growth inhibition incubated for 10 mins by CFSE staining based flow cytometric analysis. The format is toxicity. For orientation: In flow cytometry, cells or beads pass a laser one at a time.
Series [2] has as its system T-cell line. The series can be described thus: Immunomodulatory activity in human T cells assessed as inhibition of IL-2 production incubated for 15 mins by FACSCalibur flow cytometry analysis. The following applies: 0.25 h. The format is functional, cell-based.
Series [3] addresses Neuronal acetylcholine receptor; alpha9/alpha10 (Homo sapiens, UniProt Q9GZZ6+Q9UGM1). As to the kind of experiment: Inhibition of human nAChR alpha9alpha10 expressed in Xenopus laevis oocytes holding potential of -70 mV by voltage-clamp based electrophysiological method. The format is cell-based.
In series [4] the test system is Human immunodeficiency virus 1. The series can be described thus: Antiviral activity against recombinant luciferase-expressing HIV-1 infected in HEK293T cells incubated for 48 hr by luciferase assay based luminometer analysis. Format: functional, organism-based. Particulars: Human immunodeficiency virus 1, HEK-293T.
Series [5] has as its system Human immunodeficiency virus. As to the kind of experiment: Antiviral activity against HIV infected in human HeLa cells expressing CD4-LTR-beta-gal assessed as inhibition of syncytia formation measured after 15 hrs by 5-bromo-4-chloro-3-indolyl-beta-D-galactoside staining based colorimetry assay. Particulars: Human immunodeficiency virus 1, HeLa. Format: functional, organism-based.

Sequence of Neuronal acetylcholine receptor; alpha9/alpha10 (Q9UGM1 whole entry): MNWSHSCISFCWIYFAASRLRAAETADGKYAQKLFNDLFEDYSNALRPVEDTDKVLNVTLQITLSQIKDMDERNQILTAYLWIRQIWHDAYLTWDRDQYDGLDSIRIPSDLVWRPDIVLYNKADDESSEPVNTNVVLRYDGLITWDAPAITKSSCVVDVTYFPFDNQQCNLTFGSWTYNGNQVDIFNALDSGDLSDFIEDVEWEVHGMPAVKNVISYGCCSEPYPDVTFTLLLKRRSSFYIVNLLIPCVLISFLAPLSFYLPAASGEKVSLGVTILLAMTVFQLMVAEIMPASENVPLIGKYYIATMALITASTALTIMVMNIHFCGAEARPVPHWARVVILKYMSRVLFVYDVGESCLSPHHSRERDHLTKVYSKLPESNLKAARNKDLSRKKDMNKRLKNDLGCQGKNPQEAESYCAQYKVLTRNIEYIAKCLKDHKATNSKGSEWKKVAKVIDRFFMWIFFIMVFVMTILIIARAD
Sequence of Neuronal acetylcholine receptor; alpha9/alpha10 (Q9GZZ6 whole entry): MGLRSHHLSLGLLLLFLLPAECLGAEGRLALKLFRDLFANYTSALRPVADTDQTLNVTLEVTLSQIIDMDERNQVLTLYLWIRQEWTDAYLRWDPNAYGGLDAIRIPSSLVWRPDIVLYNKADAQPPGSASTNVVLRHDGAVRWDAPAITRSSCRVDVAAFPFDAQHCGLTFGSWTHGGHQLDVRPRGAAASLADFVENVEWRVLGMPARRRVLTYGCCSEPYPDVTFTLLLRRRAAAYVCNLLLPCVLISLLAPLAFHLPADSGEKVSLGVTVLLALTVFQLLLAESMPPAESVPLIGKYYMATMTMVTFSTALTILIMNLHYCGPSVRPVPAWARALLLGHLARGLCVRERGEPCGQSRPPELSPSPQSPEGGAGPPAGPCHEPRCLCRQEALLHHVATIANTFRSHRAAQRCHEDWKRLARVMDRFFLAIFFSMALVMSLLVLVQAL

The IC50 is the midpoint of a concentration-inhibition curve. For `CC(C)C[C@@H]1NC(=O)CNC(=O)[C@H](CC(N)=O)NC(=O)[C@H](CCCNC(=N)N)NC(=O)[C@H]([C@@H](C)O)NC(=O)[C@@H]2CSSC[C@@H]3NC(=O)[C@H]([C@@H](C)O)NC(=O)CNC(=O)CNC(=O)[C@H](C(C)C)NC(=O)[C@@H]4CSSC[C@H](NC(=O)[C@H]([C@@H](C)O)NC(=O)[C@H](CSSC[C@H](NC(=O)[C@H](C(C)C)NC(=O)[C@@H]5CCCN5C1=O)C(=O)NCC(=O)N[C@@H](CCC(=O)O)C(=O)N[C@@H]([C@@H](C)O)C(=O)N4)NC(=O)CNC(=O)[C@@H]1CCCN1C(=O)[C@H]([C@@H](C)O)NC(=O)[C@H](CC(N)=O)NC3=O)C(=O)N[C@@H](CO)C(=O)N[C@@H](Cc1c[nH]c3ccccc13)C(=O)N1CCC[C@H]1C(=O)N[C@@H](C(C)C)C(=O)N2`, the IC50 at 10 min in series [1] is 2900 nM. Consider `CC(C)C[C@@H]1NC(=O)CNC(=O)[C@H](CC(N)=O)NC(=O)[C@H](CCCNC(=N)N)NC(=O)[C@H]([C@@H](C)O)NC(=O)[C@@H]2CSSC[C@@H]3NC(=O)[C@H]([C@@H](C)O)NC(=O)CNC(=O)CNC(=O)[C@H](C(C)C)NC(=O)[C@@H]4CSSC[C@H](NC(=O)[C@H](CCCCN)NC(=O)[C@H](CSSC[C@H](NC(=O)[C@H](C(C)C)NC(=O)[C@@H]5CCCN5C1=O)C(=O)NCC(=O)N[C@@H](CCC(=O)O)C(=O)N[C@@H]([C@@H](C)O)C(=O)N4)NC(=O)CNC(=O)[C@@H]1CCCN1C(=O)[C@H]([C@@H](C)O)NC(=O)[C@H](CC(N)=O)NC3=O)C(=O)N[C@@H](CO)C(=O)N[C@@H](Cc1c[nH]c3ccccc13)C(=O)N1CCC[C@H]1C(=O)N[C@@H](C(C)C)C(=O)N2`, for which the IC50 in series [2] is 1900 nM. In series [3], `C[C@@H](O)[C@@H]1NC(=O)[C@@H]2CSSC[C@H](C(=O)N[C@@H](Cc3ccc(O)cc3)C(=O)O)NC(=O)[C@H](CCC(N)=O)NC(=O)[C@H](Cc3ccc(O)c(I)c3)NC(=O)[C@H](CCCNC(=N)N)NC(=O)[C@H](CSSC[C@H](NC(=O)CN)C(=O)N2)NC(=O)[C@H](CCCNC(N)=O)NC(=O)[C@@H]2CCCN2C(=O)[C@H](CC(=O)O)NC1=O` had an IC50 of 1.5 nM. For Ac-WMEWDREINNYTSLIEESQNQQEKNEQELL-NH2, the IC50 in series [4] is 2.1 nM; in series [5], 0.55 nM.
